According to PMC10033419, “Blocking NS3–NS4B interaction inhibits dengue virus in non-human primates” (Nature, 2023):
Several values for one entry are separate records, joined by “and”; a condition that tells them apart may be missing. Equal entries are not always repeated.

Tested on: DENV-2 RL strain
Experiment: In vivo kinetics study, low viral inoculum (10^2 PFU)
[1] = 20 mg/kg/d, day 2 p.i., individual mice
[2] = 20 mg/kg/d, day 3 p.i., individual mice
[3] = 20 mg/kg/d, day 4 p.i., individual mice
[4] = 20 mg/kg/d, day 5 p.i., individual mice
[5] = JNJ-1802 0.2 mg/kg/d, day 5 p.i., individual mice, 0.2 mg/kg/day
[6] = JNJ-1802 0.2 mg/kg/d, day 6 p.i., individual mice, 0.2 mg/kg/day
[7] = JNJ-1802 0.2 mg/kg/d, day 8 p.i., individual mice, 0.2 mg/kg/day
[8] = JNJ-1802 0.2 mg/kg/d, day 11 p.i., individual mice
[9] = JNJ-1802 2 mg/kg/d, day 5 p.i., individual mice
[10] = JNJ-1802 2 mg/kg/d, day 6 p.i., individual mice
[11] = JNJ-1802 2 mg/kg/d, day 8 p.i., individual mice
[12] = JNJ-1802 2 mg/kg/d, day 11 p.i., individual mice, 2 mg/kg/day
[13] = JNJ-1802 20 mg/kg/d, day 5 p.i., individual mice
[14] = JNJ-1802 20 mg/kg/d, day 6 p.i., individual mice
[15] = JNJ-1802 20 mg/kg/d, day 8 p.i., individual mice
[16] = JNJ-1802 20 mg/kg/d, day 11 p.i., individual mice

COc1cc(N[C@H](C(=O)c2c[nH]c3ccc(OC(F)(F)F)cc23)c2ccc(Cl)cc2OC)cc(S(C)(=O)=O)c1 [JNJ-1802]
In vivo kinetics, Log10 of Copies/ml (20 mg/kg/d, day 1 p.i., individual mice): 2.5940 Log10 | In vivo kinetics, Mean of Log10 (20 mg/kg/d, day 2 p.i., group mean): 2.59 Log10 | In vivo kinetics, Copies/ml [1]: 3.93E+02 Copies/ml | In vivo kinetics, Log10 of Copies/ml [1]: 2.5940 Log10 | In vivo kinetics, Mean of Log10 (20 mg/kg/d, day 3 p.i., group mean): 2.75 Log10 | In vivo kinetics, Copies/ml [2]: 3.93E+02 Copies/ml and 6.76E+03 Copies/ml | In vivo kinetics, Log10 of Copies/ml [2]: 2.5940 Log10 and 3.8298 Log10 | In vivo kinetics, Mean of Log10 (20 mg/kg/d, day 4 p.i., group mean): 2.59 Log10 | In vivo kinetics, Copies/ml [3]: 3.93E+02 Copies/ml | In vivo kinetics, Log10 of Copies/ml [3]: 2.5940 Log10 | In vivo kinetics, Mean of Log10 (20 mg/kg/d, day 5 p.i., group mean): 2.76 Log10 | In vivo kinetics, Copies/ml [4]: 3.93E+02 Copies/ml and 7.90E+03 Copies/ml | In vivo kinetics, Log10 of Copies/ml [4]: 2.5940 Log10 and 3.8977 Log10 | effect on body weight (20, 2 or 0.2 mg per kg per day b.i.d., 6 days): did not affect body weight | mean viral load vs vehicle (20 and 2 mg per kg per day b.i.d., on 6 out of 8 days): reduced to undetectable levels | In vivo kinetics - viral RNA, Copies/ml [5]: 4.57E+04 Copies/ml and 9.46E+04 Copies/ml and 4.38E+05 Copies/ml | In vivo kinetics - viral RNA, Log10 [5]: 4.6597 Log10 and 4.9759 Log10 and 5.6413 Log10 | In vivo kinetics - viral RNA, Mean of Log10 (JNJ-1802 0.2 mg/kg/d, day 6 p.i., group mean): 4.69 Log10 | In vivo kinetics - viral RNA, Copies/ml [6]: 4.46E+04 Copies/ml and 2.63E+04 Copies/ml and 2.31E+04 Copies/ml and 1.84E+05 Copies/ml and 8.21E+04 Copies/ml and 8.40E+03 Copies/ml | In vivo kinetics - viral RNA, Log10 [6]: 4.6493 Log10 and 4.4198 Log10 and 4.8549 Log10 and 5.1560 Log10 and 4.3639 Log10 and 5.2645 Log10 and 4.9143 Log10 and 3.9243 Log10 | In vivo kinetics - viral RNA, Mean of Log10 (JNJ-1802 0.2 mg/kg/d, day 8 p.i., group mean): 3.63 Log10 | In vivo kinetics - viral RNA, Copies/ml [7]: 3.93E+02 Copies/ml and 4.25E+05 Copies/ml and 5.92E+05 Copies/ml | In vivo kinetics - viral RNA, Log10 [7]: 2.5940 Log10 and 5.6283 Log10 and 5.7725 Log10 | In vivo kinetics - viral RNA, Mean of Log10 (JNJ-1802 0.2 mg/kg/d, day 11 p.i., group mean): 2.59 Log10 | In vivo kinetics - viral RNA, Copies/ml [8]: 3.93E+02 Copies/ml | In vivo kinetics - viral RNA, Log10 [8]: 2.5940 Log10 | In vivo kinetics - viral RNA, Copies/ml [9]: 3.93E+02 Copies/ml | In vivo kinetics - viral RNA, Log10 [9]: 2.5940 Log10 | In vivo kinetics - viral RNA, Mean of Log10 (JNJ-1802 2 mg/kg/d, day 6 p.i., group mean): 2.59 Log10 | In vivo kinetics - viral RNA, Copies/ml [10]: 3.93E+02 Copies/ml | In vivo kinetics - viral RNA, Log10 [10]: 2.5940 Log10 | In vivo kinetics - viral RNA, Mean of Log10 (JNJ-1802 2 mg/kg/d, day 8 p.i., group mean): 2.59 Log10 | In vivo kinetics - viral RNA, Copies/ml [11]: 3.93E+02 Copies/ml | In vivo kinetics - viral RNA, Log10 [11]: 2.5940 Log10 | In vivo kinetics - viral RNA, Mean of Log10 (JNJ-1802 2 mg/kg/d, day 11 p.i., group mean): 2.74 Log10 | In vivo kinetics - viral RNA, Copies/ml [12]: 3.93E+02 Copies/ml and 3.01E+03 Copies/ml | In vivo kinetics - viral RNA, Log10 [12]: 2.5940 Log10 and 3.4790 Log10 | In vivo kinetics - viral RNA, Copies/ml [13]: 3.93E+02 Copies/ml | In vivo kinetics - viral RNA, Log10 [13]: 2.5940 Log10 | In vivo kinetics - viral RNA, Mean of Log10 (JNJ-1802 20 mg/kg/d, day 6 p.i., group mean): 2.59 Log10 | In vivo kinetics - viral RNA, Copies/ml [14]: 3.93E+02 Copies/ml | In vivo kinetics - viral RNA, Log10 [14]: 2.5940 Log10 | In vivo kinetics - viral RNA, Mean of Log10 (JNJ-1802 20 mg/kg/d, day 8 p.i., group mean): 2.59 Log10 | In vivo kinetics - viral RNA, Copies/ml [15]: 3.93E+02 Copies/ml | In vivo kinetics - viral RNA, Log10 [15]: 2.5940 Log10 | In vivo kinetics - viral RNA, Mean of Log10 (JNJ-1802 20 mg/kg/d, day 11 p.i., group mean): 2.59 Log10 | In vivo kinetics - viral RNA, Copies/ml [16]: 3.93E+02 Copies/ml | In vivo kinetics - viral RNA, Log10 [16]: 2.5940 Log10 | In vivo kinetics, Mean of Log10 (mouse, in vivo): 2.78 Log10 | In vivo kinetics - viral RNA, Copies/ml (mouse, in vivo, 0.2 mg/kg/day): 7.16E+04 Copies/ml and 1.43E+05 Copies/ml
